Laboratory results taken from the supplement of paper PMC10307832.

How the values were obtained:
Assay in all cases: relative viability (nuclei count vs DMSO), 5 days (fraction); higher = more cells survive
Ruxolitinib + Alpelisib = compound: N#CC[C@H](C1CCCC1)n1cc(-c2ncnc3[nH]ccc23)cn1 [Ruxolitinib] + Cc1nc(NC(=O)N2CCC[C@H]2C(N)=O)sc1-c1ccnc(C(C)(C)C(F)(F)F)c1 [Alpelisib] (partner 2 µM)
Outline: (§1)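 Lung cancer cell lines were pin-tool dosed in 1536-well plates on the day after seeding, with either a lone drug or a fixed anchor-drug dose plus five library-drug doses (not always all listed) in √10 steps. Nuclei were counted on 4× images after 5 days. Relative viability is the ratio of treated-well to vehicle-well nuclei counts, with each value a median of duplicate plates.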

VE-821 + Bortezomib = compound: CS(=O)(=O)c1ccc(-c2cnc(N)c(C(=O)Nc3ccccc3)n2)cc1 [VE-821] + CC(C)C[C@H](NC(=O)[C@H](Cc1ccccc1)NC(=O)c1cnccn1)B(O)O [Bortezomib] (partner 0.002 µM)
Outline: as §1

Vismodegib + Vorinostat = compound: CS(=O)(=O)c1ccc(C(=O)Nc2ccc(Cl)c(-c3ccccn3)c2)c(Cl)c1 [Vismodegib] + O=C(CCCCCCC(=O)Nc1ccccc1)NO [Vorinostat] (partner 1 µM)
Outline: as §1

Ruxolitinib + Tozasertib = compound: N#CC[C@H](C1CCCC1)n1cc(-c2ncnc3[nH]ccc23)cn1 [Ruxolitinib] + Cc1cc(Nc2cc(N3CCN(C)CC3)nc(Sc3ccc(NC(=O)C4CC4)cc3)n2)n[nH]1 [Tozasertib] (partner 0.1 µM)
Outline: as §1

## UMC-11
Ruxolitinib + Alpelisib; first compound 0.08 µM
  relative viability: 0.869
Ruxolitinib + Alpelisib; first compound 0.253 µM
  relative viability: 1.02
Ruxolitinib + Alpelisib; first compound 0.8 µM
  relative viability: 1.06
Ruxolitinib + Alpelisib; first compound 2.53 µM
  relative viability: 1.12
Ruxolitinib + Alpelisib; first compound 8 µM
  relative viability: 0.938
VE-821 + Bortezomib; first compound 0.08 µM
  relative viability: 0.873
VE-821 + Bortezomib; first compound 0.253 µM
  relative viability: 0.707
VE-821 + Bortezomib; first compound 0.8 µM
  relative viability: 0.794
VE-821 + Bortezomib; first compound 2.53 µM
  relative viability: 0.789
VE-821 + Bortezomib; first compound 8 µM
  relative viability: 0.641
Vismodegib + Vorinostat; first compound 0.08 µM
  relative viability: 0.392
Vismodegib + Vorinostat; first compound 0.253 µM
  relative viability: 0.373
Vismodegib + Vorinostat; first compound 0.8 µM
  relative viability: 0.415
Vismodegib + Vorinostat; first compound 2.53 µM
  relative viability: 0.35
Vismodegib + Vorinostat; first compound 8 µM
  relative viability: 0.462
Ruxolitinib + Tozasertib; first compound 0.08 µM
  relative viability: 0.206
Ruxolitinib + Tozasertib; first compound 0.253 µM
  relative viability: 0.206
Ruxolitinib + Tozasertib; first compound 0.8 µM
  relative viability: 0.203
Ruxolitinib + Tozasertib; first compound 2.53 µM
  relative viability: 0.214
Ruxolitinib + Tozasertib; first compound 8 µM
  relative viability: 0.2
